Assay results published in PMC8795539 (Proceedings of the National Academy of Sciences of the …, 2022).

Experiments:
[1] = target: T1, SmoA (Atu3277), flavin mononucleotide reductase (Agrobacterium fabrum, UniProt Q7CS24); test: copurification, LC-MS of heat-released flavin; type: binding
T1 sequence (Q7CS24 1-174): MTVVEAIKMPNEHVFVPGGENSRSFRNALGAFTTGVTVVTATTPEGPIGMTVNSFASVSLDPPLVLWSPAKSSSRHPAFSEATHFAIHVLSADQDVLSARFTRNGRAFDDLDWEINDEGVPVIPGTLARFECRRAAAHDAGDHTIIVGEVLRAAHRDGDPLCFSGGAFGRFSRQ

[2] = target: T2, SmoB (Atu3278), 6-OG reductase (Agrobacterium fabrum, UniProt A9CEY6); test: ITC; type: binding
T2 sequence (A9CEY6 1-297): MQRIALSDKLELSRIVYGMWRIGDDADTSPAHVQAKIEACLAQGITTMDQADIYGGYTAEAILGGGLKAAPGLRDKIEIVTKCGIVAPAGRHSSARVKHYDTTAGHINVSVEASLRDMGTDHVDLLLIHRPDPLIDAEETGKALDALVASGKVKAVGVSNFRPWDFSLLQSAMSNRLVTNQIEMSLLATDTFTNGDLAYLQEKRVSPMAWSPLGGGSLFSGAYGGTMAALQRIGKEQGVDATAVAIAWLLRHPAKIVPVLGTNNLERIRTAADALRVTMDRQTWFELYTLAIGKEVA

SEC-MALS = target: the molecule itself; test: SEC-MALS
purified protein = substrate: NC(=O)C1=CN([C@@H]2O[C@H](COP(=O)(O)OP(=O)(O)OC[C@H]3O[C@@H](n4cnc5c(N)ncnc54)[C@H](O)[C@@H]3O)[C@@H](O)[C@H]2O)C=CC1; test: purified protein; settings: FMN

## Cc1cc2nc3c(=O)[nH]c(=O)nc-3n(C[C@H](O)[C@H](O)[C@H](O)COP(=O)(O)O)c2cc1C [FMN]
[1]
  copurification, LC-MS of heat-released flavin: to reveal that flavin mononucleotide (FMN) was the sole detectable flavin

## NC(=O)C1=CN([C@@H]2O[C@H](COP(=O)(O)OP(=O)(O)OC[C@H]3O[C@@H](n4cnc5c(N)ncnc54)[C@H](OP(=O)(O)O)[C@@H]3O)[C@@H](O)[C@H]2O)C=CC1 [NADPH]
[2]
  Kd: ~2000 nM

B1: SmoC (Atu3279), SQ monooxygenase from Agrobacterium tumefaciens C58 (enzyme)
chain: MTVVPVTSADLDAAEVSWFSALCSDDYAYLGVPDGSLRSSFEHCSDIVKKAEELGFRNILCPSSYQVGQDTLSFVAGCAPISDRINFLAAIRCGEMQPIMLARTVATLDHMLKGRLTLNVISSDFPGEVADSAFRYKRSHEVVEILRQAWTRDTIDHDGEIYQFKGVSTEPARPYQLNGGPLLYFGGYSPDALELCGAQCDVYLMWPETKDQLADRMRAAHERAAAHGRTLDYGLRVHMVVRDTEQEAREYADHLVSKLDDEYGQLIRNRAHDSGSLGVSHQARARELADKFGYVEPNLWTGIGRARSGCGAALVGSTDQVLSALEEYQKMGIRAFILSGYPHLDEAEHFGTKVLPQMKTCSLPHAYGRVPSETPATPLGNGERH
SEC-MALS
  stoichiometry N: 2

B2: SmoA (Atu3277), flavin mononucleotide reductase (Agrobacterium fabrum str. C58) (protein)
chain: T1 sequence (Q7CS24 1-174)
Purified protein
  Km: 35 ± 5 µM
